In patent US9481648B2, “Kinase inhibitors” (Respivert Limited, priority 2013, dated 2016):
Read-outs that look alike come from different tables or passages of the source.

Experiments:
[1] = biological target: B-Raf (Homo sapiens (Human), UniProt P15056); experiment: KINOMEscan binding of kinase to its standard ligand
Method: (§1) Kinase enzyme binding activities of compounds disclosed herein may be determined using a proprietary assay which measures active site-directed competition binding to an immobilized ligand (Fabian, M. A. et al., Nature Biotechnol., 2005, 23:329-336). These assays may be conducted by DiscoverX (formerly Ambit; San Diego, Calif.). The percentage inhibition produced by incubation with a test compound may be calculated relative to the non-inhibited control.

[2] = biological target: B-Raf (V600E) (Homo sapiens (Human), UniProt P15056, V600E); experiment: as above
Method: as §1

[3] = system: TNBS-induced colitis in BDF1 mice; experiment: TNBS-induced colitis in mice (in vivo iv); set-up: species or system mouse; details: for inflammatory cell infiltrate in the reticular and laminar propria zones / ulcer grade and epithelial repair compared to the vehicle control: 5 mg/kg orally, 2 days; for inflammatory cell infiltrate in the reticular and laminar propria zones / ulcer grade and epithelial repair compared to the vehicle control / activity in in vivo model of colonic inflammation (histopathology analysis): TNBS-induced colitis, mice; for LP inflammation / Ulcer grade: TNBS-induced colitis in mice, 5 mg/kg oral; for activity in in vivo model of colonic inflammation (histopathology analysis): conducted over 2 days
Method: Non-fasted, 10-12 week old, male BDF1 mice are dosed by oral gavage twice daily with either vehicle (5 mL/kg), reference item (Budesonide 2.5 mg/kg) or test compound (1 or 5 mg/kg) one day before (Day −1) stimulation of the inflammatory response by treatment with 2,4,6-trinitrobenzenesulphonic acid (TNBS) (15 mg/mL in 50% ethanol/50% saline). On Day 0 of the study TNBS (200 μL) is administered intra-colonically via a plastic catheter with BID dosing of the vehicle, reference or test compound continuing for 2 or 4 days. During the study, animals are weighed every day and stool observations are made and recorded as a score, based on stool consistency. At the time of sacrifice on Day 2 (or Day 4), the large intestine is removed and the length and weight recorded. Sections of the colon are taken for histopathology scoring to determine disease severity.

[4] = Plasma pharmacokinetics in rats, single intravenous or oral administration; format: in vivo, rat (male Wistar); details: for C0: intravenous 0.25 mg/kg in 5% DMSO-7.5% Solutol HS15-87.5% normal saline; for Vd: read-out: Vss; for Fpo: oral 5 mg/kg, vehicle C (Example 4) or B
Method: Studies were conducted by Sai Life Sciences (Hinjewadi, Pune, India) to investigate the plasma pharmacokinetics and total colon tissue distribution of compounds of the invention. In particular, pharmacokinetic studies were carried out in: • male C57BL/6 mice, following a single oral administration; and • male Wistar rats following a single intravenous or oral administration.

[5] = biological target: Syk (Homo sapiens (Human), UniProt P43405); experiment: Syk enzyme inhibition (FRET, Z-LYTE); format: biochemical
Outline: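 Syk or c-Src enzyme (3000 or 2000 ng/mL solutions) was preincubated 2 h at RT with compound solutions at 1, 0.1, 0.01 or 0.001 µg/mL. Z-LYTE FRET peptide (8 µM solution) and ATP (800 µM solution for c-Src, 60 µM for Syk) were then added for 1 h, followed by protease development for 1 h. Phosphorylation was read as the coumarin/fluorescein emission ratio.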

[6] = biological target: p38 MAPKα (MAPK14) (Homo sapiens (Human), UniProt Q16539); experiment: p38 MAPKα enzyme inhibition (FRET, Z-LYTE; Method 2); format: biochemical
[7] = system: endotoxin (LPS)-induced uveitis in Lewis rats; experiment: Endotoxin-induced uveitis in rats (in vivo vi); set-up: species or system rat; details: for IL-1β Anterior / IL-1β Posterior / IL-6 Anterior / IL-6 Posterior / MCP-1 Anterior / MCP-1 Posterior: Table 7b, eyes of LPS-stimulated rats, 1 mg/mL; for cytokine levels in both the anterior and posterior segments of the eyes: rats treated with intravitreal endotoxin LPS, topical dosing
Method: Male, Lewis rats (6-8 weeks old, Charles River UK Limited) are housed in cages of 3 at 19-21° C. with a 12 h light/dark cycle (07:00/19:00) and fed a standard diet of rodent chow and water ad libitum. Non-fasted rats are weighed, individually identified on the tail with a permanent marker, and receive a single intravitreal administration into the right vitreous humor (5 μL dose volume) of 100 ng/animal of LPS (Escherichia coli 0111:B4 prepared in PBS, Sigma Aldrich, UK) using a 32-gauge needle. Untreated rats are injected with PBS. […] Following euthanasia, the right eye of each animal is enucleated and dissected into front (anterior) and back (posterior) sections around the lens. Each section is weighed and homogenised in 500 μL of sterile phosphate buffered saline followed by 20 minutes centrifugation at 12000 rpm at 4° C.

[8] = biological target: CYP2C9 (Homo sapiens (Human), UniProt P11712); experiment: CYP2C9 inhibition study; format: in vitro ADME; details: for inhibition at 15 µM: human, read-out: 15 μM % Inh
Method: Assessment of certain in vitro ADME (absorption, distribution, metabolism, and excretion) parameters for certain compounds of the invention was conducted by BioFocus (Saffron Walden, UK).

[9] = system: intestinal mucosa biopsies from the inflamed regions of the colon of ulcerative colitis (IBD) patients; experiment: Human biopsy assay (assay l); format: cell-based; details: 1 μg/mL; for cytokine (IL-1β, IL-6 and IL-8) release compared to the DMSO control: 24 hours, biopsies from ulcerative colitis patients
Method: Intestinal mucosa biopsies are obtained from the inflamed regions of the colons of IBD patients. The biopsy material is cut into small pieces (2-3 mm) and placed on steel grids in an organ culture chamber at 37° C. in a 5% CO2/95% O2 atmosphere in serum-free media. DMSO control or test compounds at the desired concentration are added to the tissue and incubated for 24 hr in the organ culture chamber. The supernatant is harvested for determination of IL-6, IL-8, IL-1β and TNFα levels by R&D ELISA.

[10] = male, Wistar, rat, plasma, rats, intravenous 0.25 mg/kg
[11] = male, Wistar, rat, plasma, rats
[12] = male, Wistar, rat, plasma, po, 5 mg/kg
[13] = male, Wistar, rat, plasma, po, 5 mg/kg, read-out: Median plasma concentration
[14] = 24 hr, relative to DMSO control = 100%

Chain of B-Raf (P15056 whole entry): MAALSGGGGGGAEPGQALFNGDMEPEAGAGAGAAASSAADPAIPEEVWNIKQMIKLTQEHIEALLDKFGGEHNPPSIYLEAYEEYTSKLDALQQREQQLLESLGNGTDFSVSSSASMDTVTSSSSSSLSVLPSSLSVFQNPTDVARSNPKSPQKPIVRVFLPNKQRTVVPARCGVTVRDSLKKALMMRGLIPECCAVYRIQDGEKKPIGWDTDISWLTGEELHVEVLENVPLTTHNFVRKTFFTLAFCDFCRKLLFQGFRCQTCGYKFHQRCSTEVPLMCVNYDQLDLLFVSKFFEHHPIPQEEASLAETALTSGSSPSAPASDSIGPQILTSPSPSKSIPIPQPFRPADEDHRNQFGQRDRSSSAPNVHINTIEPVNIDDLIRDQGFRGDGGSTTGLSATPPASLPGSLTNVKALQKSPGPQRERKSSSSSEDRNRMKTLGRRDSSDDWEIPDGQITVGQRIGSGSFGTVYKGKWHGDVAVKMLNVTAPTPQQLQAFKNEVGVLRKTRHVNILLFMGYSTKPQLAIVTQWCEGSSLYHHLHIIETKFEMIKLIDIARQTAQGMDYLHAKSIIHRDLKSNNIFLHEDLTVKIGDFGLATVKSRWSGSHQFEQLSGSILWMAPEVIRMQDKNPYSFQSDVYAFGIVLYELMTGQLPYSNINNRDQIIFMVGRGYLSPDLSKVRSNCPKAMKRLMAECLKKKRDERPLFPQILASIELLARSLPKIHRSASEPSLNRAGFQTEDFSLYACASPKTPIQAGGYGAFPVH
Chain of p38 MAPKα (MAPK14) (Q16539 whole entry): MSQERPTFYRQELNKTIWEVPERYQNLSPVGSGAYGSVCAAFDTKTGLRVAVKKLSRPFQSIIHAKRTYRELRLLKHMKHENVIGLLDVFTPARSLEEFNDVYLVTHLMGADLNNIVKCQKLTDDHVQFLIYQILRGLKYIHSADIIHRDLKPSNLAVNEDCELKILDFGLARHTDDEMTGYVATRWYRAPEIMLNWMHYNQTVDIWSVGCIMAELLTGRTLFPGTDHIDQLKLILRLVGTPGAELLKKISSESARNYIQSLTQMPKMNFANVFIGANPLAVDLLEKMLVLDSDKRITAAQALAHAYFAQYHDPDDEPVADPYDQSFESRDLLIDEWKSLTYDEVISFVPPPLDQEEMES
Chain of CYP2C9 (P11712 whole entry): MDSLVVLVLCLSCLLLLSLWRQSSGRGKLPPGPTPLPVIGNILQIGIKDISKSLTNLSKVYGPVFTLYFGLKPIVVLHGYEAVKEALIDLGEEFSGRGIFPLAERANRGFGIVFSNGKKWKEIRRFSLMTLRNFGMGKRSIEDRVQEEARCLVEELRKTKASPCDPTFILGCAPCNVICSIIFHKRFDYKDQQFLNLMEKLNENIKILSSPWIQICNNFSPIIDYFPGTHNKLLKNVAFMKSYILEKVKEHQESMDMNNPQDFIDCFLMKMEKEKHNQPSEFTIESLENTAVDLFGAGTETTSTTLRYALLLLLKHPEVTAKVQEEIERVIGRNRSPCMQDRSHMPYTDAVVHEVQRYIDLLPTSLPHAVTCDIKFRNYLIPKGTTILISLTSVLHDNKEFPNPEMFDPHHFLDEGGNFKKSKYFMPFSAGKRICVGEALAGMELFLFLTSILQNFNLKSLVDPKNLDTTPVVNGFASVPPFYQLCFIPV
Chain of B-Raf (V600E) (P15056 whole entry V600E): as the sequence (P15056 whole entry) above, with V600E counted along it

Row | SMILES | effect on the binding of the kinase B-Raf to its standard ligand [1] | effect on the binding of the kinase B-Raf (V600E) to its standard ligand [2] | inflammatory cell infiltrate in the reticular and laminar propria zones [3] | ulcer grade and epithelial repair compared to the vehicle control [3] | LP inflammation [3] | Ulcer grade [3] | activity in in vivo model of colonic inflammation (histopathology analysis) [3] | AUC(0-inf) [4, 10] | AUC(0-t) [4, 10] | half-life [4, 10] | C0 [4, 11] | Vd [4, 10] | CI ([4]; rats, intravenous 0.25 mg/kg) | Fpo ([4]; rats) | IC50 [5] | IC50 [6] | IL-1β Anterior [7] | IL-1β Posterior [7] | IL-6 Anterior [7] | IL-6 Posterior [7] | further results
1 | COCCOCCOCCNC(=O)c1cc(Nc2cc(Oc3ccc(NC(=O)Nc4cc(C(C)(C)C)cc(NS(C)(=O)=O)c4OC)c4ccccc34)ccn2)cc(OC)c1 [Example 3, 3-((4-((4-(3-(5-(tert-Butyl)-2-methoxy-3-(methylsulfonamido)phenyl)ureido)naphthalen-1-yl)oxy)pyridin-2-yl)amino)-5-methoxy-N-(2-(2-(2-methoxyethoxy)ethoxy)ethyl)benzamide] | did not have any significant effect | did not have any significant effect | marked reduction | marked improvements | 3.8 ± 0.5 | 3.7 ± 0.4 | substantial activity | 821 ng·h/mL | 820 ng·h/mL | 0.2 h | 4380 ng/mL | 0.1 L/kg | 5.1 mL/min/kg | 0.0% | 692 nM | 87 nM |  |  |  |  | 
2 | COc1c(NC(=O)Nc2ccc(Oc3ccnc(Nc4ccccc4)c3)c3ccccc23)cc(C(C)(C)C)cc1C(=O)NC1COC1 [Example 75, 5-(tert-Butyl)-2-methoxy-N-(oxetan-3-yl)-3-(3-(4-((2-(phenylamino)pyridin-4-yl)oxy)-naphthalen-1-yl)ureido)benzamide] | did not have any significant effect | did not have any significant effect | marked reduction | marked improvements | 2.3 ± 0.4 | 3.0 ± 0.4 | substantial activity | 952 ng·h/mL | 948 ng·h/mL | 1.2 h | 4000 ng/mL | 0.1 L/kg | 4.4 mL/min/kg | 0.1% | 214 nM | 123 nM | 570 ± 146 pg/mL | 414 ± 97 pg/mL | 393 ± 118 pg/mL | 489 ± 119 pg/mL | MCP-1 Anterior [7]: 239 ± 82 pg/mL; MCP-1 Posterior [7]: 279 ± 83 pg/mL; cytokine levels in both the anterior and posterior segments of the eyes [7]: significantly reduced; IC50 ([8]; CYP2C9, 0 min preincubation): > 15000 nM; IC50 ([8]; CYP2C9, 30 min preincubation): > 15000 nM; inhibition at 15 µM ([8]; CYP2C9, 0 min preincubation): 20%; inhibition at 15 µM ([8]; CYP2C9, 30 min preincubation): 36%; AUC(0-t) [4, 12]: 26.6 ng·h/mL; Cmax [4, 12]: 3.8 ng/mL; Tmax [4, 12]: 5.3 h; concentration at 0.25 h [4, 13]: 0 ng/mL; concentration at 0.5 h [4, 13]: 0 ng/mL; concentration at 1 h [4, 13]: 0 ng/mL; concentration at 2 h [4, 13]: 1.2 ng/mL; concentration at 4 h [4, 13]: 3.1 ng/mL; concentration at 6 h [4, 13]: 2 ng/mL; concentration at 8 h [4, 13]: 3.2 ng/mL; concentration at 12 h [4, 13]: 2.3 ng/mL; concentration at 24 h [4, 13]: 0 ng/mL
3 | COc1cc(Nc2cc(Oc3ccc(NC(=O)Nc4cc(C(C)(C)C)cc(NS(C)(=O)=O)c4OC)c4ccccc34)ccn2)cc(C(=O)NCCN2CCOCC2)c1 [Example 27] | did not have any significant effect | did not have any significant effect | marked reduction | marked improvements | 3.2 ± 0.4 | 3.3 ± 0.5 | substantial activity | 590 ng·h/mL | 588 ng·h/mL | 0.8 h | 3880 ng/mL | 0.1 L/kg | 7.1 mL/min/kg | 0.0% | 443 nM | 41 nM | 640 ± 263 pg/mL | 394 ± 115 pg/mL | 519 ± 196 pg/mL | 424 ± 116 pg/mL | MCP-1 Anterior [7]: 282 ± 109 pg/mL; MCP-1 Posterior [7]: 352 ± 109 pg/mL; cytokine levels in both the anterior and posterior segments of the eyes [7]: significantly reduced; cytokine (IL-1β, IL-6 and IL-8) release compared to the DMSO control [9]: significantly inhibited; Cytokine release from biopsies of UC patients: IL-1β release [9, 14]: 11 ± 54%; Cytokine release from biopsies of UC patients: IL-6 release [9, 14]: 48 ± 26%; Cytokine release from biopsies of UC patients: IL-8 release [9, 14]: 60 ± 15%; IC50 ([8]; CYP2C9, 0 min preincubation): > 15000 nM; IC50 ([8]; CYP2C9, 30 min preincubation): > 13000 nM; inhibition at 15 µM ([8]; CYP2C9, 0 min preincubation): 13%; inhibition at 15 µM ([8]; CYP2C9, 30 min preincubation): 55%
4 | C#Cc1cc(Nc2nccc(Oc3ccc(NC(=O)Nc4cc(C(C)(C)C)cc(NS(C)(=O)=O)c4OC)c4ccccc34)n2)cc(C(=O)NCCOCCOCCOC)c1 [Example 16] | did not have any significant effect | did not have any significant effect | marked reduction | marked improvements |  |  | substantial activity |  |  |  |  |  |  | 0.0% |  |  |  |  |  |  | cytokine (IL-1β, IL-6 and IL-8) release compared to the DMSO control [9]: significantly inhibited
